Data from US6573267B2, “Useful aroyl aminoacyl pyrrole compounds” (Ortho-McNeil Pharmaceutical, Inc., priority 2000, dated 2003).
Structures can show the parent of a compound that is named as a salt. Where two headings read alike, the source gives them in different places.

Tests used:
[1] = system: mechanical allodynia (paw withdrawal threshold); assay: Neuropathic pain model (Chung Model), spinal nerve ligation, mechanical allodynia with von Frey hairs; type: in vivo, Sprague-Dawley rats; conditions: for inhibition in vivo at 30 mg/kg: read-out: % MPE
Procedure: Procedure for Testing in a Neuropathic Pain Model
The compounds of the present invention are useful in the treatment of neuropathic pain. The use of the compounds in treating neuropathic pain was determined using an animal model. This model was developed and first described by S. H. Chung and J. M. Chung, An Experimental Model for Peripheral Neuropathy Produced by Segmental Spinal Nerve Ligation in the Rat, Pain, 1992, 50, 355-363 (referred to hereinafter as the “Chung Model”).
Male Sprague-Dawley rats, weighing approximately 200 g each were anesthetized with isoflurane. The spinal nerve at the level of L5 was exposed through an incision just left of the dorsal midline and tightly ligated with 6-0 silk. At various times after surgery, animals were tested for mechanical allodynia with von Frey hairs (monofilaments which are calibrated to bend under a certain amount of pressure, ranging from 0.41 to 15.1 g). In order to calculate a paw withdrawal threshold (PWT), tactile allodynia was measured by recording the pressure at which the affected paw was withdrawn from graded stimuli according to the procedure of S. R. Chaplan, J. W. Pogrel, T. L. Yaksh, Role of Voltage-Dependent Calcium Channel Subtypes in Experimental Tactile Allodynia, J. Pharmacol. Exp. Ther. 1994, 269,1117-1123. Normal rats can withstand at least 15 g of pressure without responding. Operated rats, however, can respond to as little as 0.25 g of pressure. The surgery was deemed successful if the animal responded with a PWT of less than 4 g of pressure applied to the affected paw.
The sham operation consisted of a similar surgery; the spinal nerve was visualized without being ligated. […] The results of the assay were expressed as percent of the maximum possible effect (% MPE), calculated as the PWT at the time of testing minus the baseline PWT divided by the maximum PWT (15 g) minus the baseline PWT times 100.
The compounds having Formula (I) and Formula (II) were tested for activity against neuropathic pain by being dissolved or suspended in either water or hydroxypropyl methylcellulose, respectively. Postoperative animals between 14 to 42 days were fasted overnight prior to dosing. Animals were orally dosed and dosage volumes were calculated on a 4 mL/kg basis. The screening dose employed was 30 mg/kg.

[2] = system: toxic extensor seizure (maximal electroshock test); assay: Mouse anticonvulsant model, maximal electroshock test (MES); type: in vivo; conditions: for MES ED50 (Active @ 30): active at dose 30; for MES ED50 (Active @ 100): active at dose 100; for ED50: ip
Procedure: Procedure for Testing in Mouse Anticonvulsant Model
The compounds of Formula (I) and Formula (II) are useful as anticonvulsant agents. The anticonvulsant activity of the subject compounds was determined using a standard “maximal electroshock test” (MES). In this test, activity is indicated by a block of the toxic extensor seizure, as described by Swinyard, et al., in J. PharmacoL Exptl. Therap., 106, 319 (1952). A more recent description of current anticonvulsant drug screening is given in Swinyard, et al., in Epilepsia, 19, 409 (1978).
The anticonvulsant activity of compounds of this invention tested according to the Swinyard (1952) method are shown in Table 3, having values for the Mouse MES Model in ED50 per dose (in mg/kg, i.p.).

[3] = Chung Model rat, antiallodynic activity, oral screening dose 30 mg/kg

Structure (SMILES) | melting point | inhibition in vivo at 30 mg/kg [1, 3] | other results
CC(N(C)C)n1cc(C(=O)c2ccc3ccccc3c2)cc1C(=O)CN1CCCCC1 (stereo not shown) (as salt: HCl) [Cpd 5, 1-[4-(2-Naphthalenoyl)-1-(N,N-dimethylaminoeth-2-yl)-1H-pyrrol-2-yl]-2-(1-piperidinyl)ethanone] | 239 to 242 °C | – | –
CCC(N(C)C)n1cc(C(=O)CN2CCCCC2)cc1C(=O)c1ccc(Cl)cc1 (stereo not shown) (as salt: HCl) [Cpd 14, 1-[5-(4-Chlorobenzoyl)-1-(N,N-dimethylaminoprop-3-yl) -1H-pyrrol-3-yl]-2-(1-piperidinyl)ethanone] | 138 to 141 °C | – | –
Cn1cc(C(=O)c2cccc3ccccc23)cc1C(=O)CN1CCCCC1 [Cpd 4, 1-[4-(1-Naphthalenoyl)-1-methyl-1H-pyrrol-2-yl]-2-(1-piperidinyl)ethanone] | – | – | inhibition in vivo at 30 mg/kg ([1]; Rattus norvegicus, po): 12%; MES ED50 (Active @ 30) ([2]; i.p.): Active @ 30
CCSCn1cc(C(=O)CN(CC)CC)cc1C(=O)c1ccccc1Cl (as salt: HCl) [Cpd 16, 1-[5-(2-Chlorobenzoyl)-1-ethylthiomethyl-1H-pyrrol-3-yl]-2-(N,N-diethylamino)ethanone] | 157 to 158 °C | – | –
CCN(CC)CC(=O)c1cc(-c2ccc(Cl)s2)n(C)c1 [Cpd 6, 1-[5-(5-Chlorothieno-2-yl)-1-methyl-1H-pyrrol-3-yl]-2-(N,N-diethylamino)ethanone] | – | – | % MPE [1, 3]: 54 % MPE; MES ED50 (Active @ 30) ([2]; i.p.): Active @ 30
CCCOn1cc(C(=O)CN(CC)CC)cc1C(=O)c1ccc(Cl)cc1 [Cpd 9, 1-[5-(4-Chlorobenzoyl)-1-ethylmethoxy-1H-pyrrol-3-yl]2-[N,N-diethylamino]ethanone] | – | 5% | MES ED50 (Active @ 100) ([2]; i.p.): Active @ 100
Cn1cc(C(=O)CCN2CCCCC2)cc1C(=O)c1cccc2ccccc12 [Cpd 8, 1-[5-(1-Naphthalenoyl)-1-methyl-1H-pyrrol-3-yl]-3-(1-piperidinyl)-1-propanone] | – | – | inhibition in vivo at 30 mg/kg ([1]; Rattus norvegicus, po): 25%; MES ED50 (Active @ 30) ([2]; i.p.): Active @ 30
CCN(CC)CC(=O)c1cc(C(=O)c2cccs2)cn1C [Cpd 2, 1-[4-(2-Thienoyl)-1-methyl-1H-pyrrol-2-yl]-2-(N,N-diethylamino)ethanone] | – | 14% | MES ED50 (Active @ 30) ([2]; i.p.): Active @ 30
CCN(CC)CC(=O)c1cc(C(=O)c2cccnc2)n(C)c1 (as salt: HCl) [Cpd 12, 1-[5-(3-Pyridinoyl)-1-methyl-1H-pyrrol-3-yl]-2-(N,N-diethylamino)ethanone] | 158 to 160 °C (dec.) | – | –
CCN(CC)CC(=O)c1cc(C(=O)c2cccs2)n(C)c1 (as salt: salt) [Cpd 10, 1-[5-(2-Thienoyl)-1-methyl-1H-pyrrol-3-yl]-2-(N,N-diethylamino)ethanone] | 153 to 155 °C | – | –
Cn1cc(C(=O)c2cccc3ccccc23)cc1C(=O)CN1CCCCC1 (as salt: HCl) [Cpd 4, 1-[4-(1-Naphthalenoyl)-1-methyl-1H-pyrrol-2-yl]-2-(1-piperidinyl)ethanone] | 246 to 248 °C | – | –
CCN(CC)CC(=O)c1cc(C(=O)c2cccc3ccccc23)cn1C [Cpd 3, 1-[4-(1-Naphthalenoyl)-1-methyl-1H-pyrrol-2-yl]-2-(N,N-diethylamino)ethanone] | – | – | inhibition in vivo at 30 mg/kg ([1]; Rattus norvegicus, po): 87%; MES ED50 (Active @ 30) ([2]; i.p.): Active @ 30
CCN(CC)CC(=O)c1cc(C(=O)c2ccc3ccccc3c2)cn1C (as salt: fumarate) [Cpd 1, 1-[4-(2-Naphthalenoyl)-1-methyl-1H-pyrrol-2-yl]-2-(N,N-diethylamino)ethanone] | 130 to 132 °C | – | –
CCCOn1cc(C(=O)CN(CC)CC)cc1C(=O)c1ccc(Cl)cc1 (as salt: HCl) [Cpd 9, 1-[5-(4-Chlorobenzoyl)-1-ethylmethoxy-1H-pyrrol-3-yl]2-[N,N-diethylamino]ethanone] | 149 to 151 °C | – | –
CCN(C)CC(=O)c1cc(C(=O)c2ccc3ccccc3c2)n(C)c1 [Cpd 15, 1-[5-(2-Naphthalenoyl)-1-methyl-1H-pyrrol-3-yl]-2-(N,N-ethylmethylamine)ethanone] | – | – | % MPE [1, 3]: 40 % MPE; MES ED50 (Active @ 30) ([2]; i.p.): Active @ 30
CN1CCN(CC(=O)c2cc(C(=O)c3ccc(Cl)cc3)n(C)c2)CC1 [Cpd 7, 1-[5-(4-Chlorobenzoyl)-1-methyl-1H-pyrrol-3-yl]-2-(4-methyl-1-piperazinyl)ethanone] | – | 21% | ED50 [2]: 16.6 mg/kg
Cn1cc(C(=O)c2ccc3ccccc3c2)cc1C(=O)CN1CCCCC1 (as salt: HCl) [Cpd 17, 1-[4-(2-Naphthalenoyl)-1-methyl-1H-pyrrol-2-yl]-2-(1-piperidinyl)ethanone] | 246 to 248 °C | – | –
CCN(CC)CC(=O)c1cc(C(=O)c2cccc3ccccc23)cn1C (as salt: HCl) [Cpd 3, 1-[4-(1-Naphthalenoyl)-1-methyl-1H-pyrrol-2-yl]-2-(N,N-diethylamino)ethanone] | 222 to 224 °C | – | –
CCN(CC)CC(=O)c1cc(C(=O)c2cccnc2)n(C)c1 [Cpd 12, 1-[5-(3-Pyridinoyl)-1-methyl-1H-pyrrol-3-yl]-2-(N,N-diethylamino)ethanone] | – | 4% | MES ED50 (Active @ 100) ([2]; i.p.): Active @ 100
CCN(CC)CC(=O)c1cc(C(=O)c2cccs2)cn1C (as salt: HCl) [Cpd 2, 1-[4-(2-Thienoyl)-1-methyl-1H-pyrrol-2-yl]-2-(N,N-diethylamino)ethanone] | 196 to 198 °C | – | –
CCN(CC)CC(=O)c1cc(C(=O)c2ccc3ccccc3c2)n(C)c1 (as salt: HCl) [Cpd 13, 1-[5-(2-Naphthalenoyl)-1-methyl-1H-pyrrol-3-yl]-2-(N,N-diethylamino)ethanone] | 195 to 196 °C | – | –
CCN(CC)CC(=O)c1cc(C(=O)c2ccc3ccccc3c2)cn1C [Cpd 1, 1-[4-(2-Naphthalenoyl)-1-methyl-1H-pyrrol-2-yl]-2-(N,N-diethylamino)ethanone] | – | 80% | ED50 [2]: 11 mg/kg
CCN(CC)CC(=O)c1cc(C(=O)c2ccc3ccccc3c2)n(C)c1 [Cpd 13, 1-[5-(2-Naphthalenoyl)-1-methyl-1H-pyrrol-3-yl]-2-(N,N-diethylamino)ethanone] | – | 80% | MES ED50 (Active @ 300) ([2]; i.p., active at dose 300): Active @ 300
CCN(CC)CC(=O)c1cc(C(=O)c2cccs2)n(C)c1 [Cpd 10, 1-[5-(2-Thienoyl)-1-methyl-1H-pyrrol-3-yl]-2-(N,N-diethylamino)ethanone] | – | 0% | MES ED50 (Active @ 100) ([2]; i.p.): Active @ 100
Cn1cc(C(=O)CN2CCCCC2)cc1C(=O)c1cccs1 [Cpd 11, 1-[5-(2-Thienoyl)-1-methyl-1H-pyrrol-3-yl]-2-(1-piperidinyl)ethanone] | 178 to 179 °C | 34% | MES ED50 (Active @ 30) ([2]; i.p.): Active @ 30
Cn1cc(C(=O)CCN2CCCCC2)cc1C(=O)c1cccc2ccccc12 (as salt: HCl) [Cpd 8, 1-[5-(1-Naphthalenoyl)-1-methyl-1H-pyrrol-3-yl]-3-(1-piperidinyl)-1-propanone] | 141 to 143 °C | – | –
